Assay results published in patent US7087648B1, “Methods for modulating macrophage proliferation using polyamine analogs” (The Regents of the University of California, priority 1997, dated 2006).

Key:
CD14^+ cells = assay: In vivo response of blood CD14 cells (PCNA, CD69 expression) to DEHOP in AIDS lymphoma patients; design: species or system human; conditions: FIG. 7
Method: (§1) Four patients who had failed standard chemotherapy for treatment of their AIDS related lymphoma (therapy included at least CHOP chemotherapy up to six cycles). were evaluated for response to DEHOP administration in vivo. Patients had blood drawn pre administration of drug for evaluation of macrophage activation. This blood was also evaluated for response to DEHOP in vitro. […] Blood was obtained at 1 week after completion of the first and second cycles of therapy. The blood specimens were evaluated for macrophage proliferation (proliferating cell nuclear antigen, PCNA expression), and activation (percentage CD69 expression). Response to therapy was evaluated by direct observation of tumor (3 patients) and persistence or resolution of symptoms (1 patient with GI lymphoma).
Because of intercurrent medical problems the patients were not allowed to receive a third cycle of DEHOP and both patients ultimately relapsed, FL on day 47 and LT on day 54. All of the macrophage activation parameters increased in both patients prior to their clinical objective tumor relapse.

[1] = tested on: CD14^+/PCNA^+ peripheral blood macrophage; assay: In vitro CD14/PCNA staining (FACSCAN) of PBMC from AIDS dementia patients cultured five days with agent; format: cell-based, human; conditions: for CD14^+/PCNA^+ / CD14^+/PCNA^− / total CD14: HIV dementia patient five; for CD14^+/PCNA^+: 0 drug: 74; for CD14^+/PCNA^−: 0 drug: 472; for total CD14: 0 drug: 546; for % Inhibition of CD14^+/PCNA antigen expression, mean: mean of HIV dementia patients
Method: We had previously separated peripheral blood monocytes on Ficoll. […] We then used Percoll gradient separation, which allows for denser cells to be captured. A two-step gradient was prepared in 15 mL conical tubes: bottom layer of 1.087 density Percoll, overlaid with 1.077 density. 1.5 mL whole heparinised blood was mixed with an equal volume of isotonic saline. This blood/saline was layered over the gradient and centrifuged. Cells from the 1.077 and 1.087 interfaces were collected, combined, and washed in 5 volumes of RPMI 1640. […] All further experiments were performed using 1.087 gradient.
Five×10^5 PBMC's isolated through a 1.087 g/cc Percoll/saline gradient were exposed to varied concentrations of agent after baseline CD14/PCNA staining was performed. The cells were cultured at 5×10^5 cells in RPM1-1640/10% fetal calf serum in a polypropylene tube (Falcon) at 37° C. for five days. After five days CD14/PCNA staining was performed on control and agent-treated cultures. FACSCAN analysis of PCNA-positive cells in control cultures was compared with agent-treated cultures and the percentage of control PCNA/CD14 cells was calculated. The results of such an experiment in which the effect of polyamine analog DEHOP (SunPharm; Florida) on proliferating macrophages (as detected by PCNA) from the blood of four patients with AIDS dementia are shown in FIG. 1A (with underlying data provided in Table 3). […] A comparison of the inhibitory effect of DEHOP and cyclosphosphamide, another anti-proliferative agent, was performed in vitro using the blood of one of these patients (“CB”).

brain cell aggregates = assay: In vitro cell killing of brain cell aggregates by macrophage supernatants treated or not with DEHOP; format: cell-based, human; conditions: FIG. 2
Method: To collect a maximum number of monocytes (both heavy and light), we used a one-step Percoll protocol. 1.5 mL whole heparinised blood was mixed with an equal volume of isotonic phosphate-buffered solution and layered over 5 mL Percoll at 1.087. The cells were centrifuged, washed, and resuspended in RPMI 1640 supplemented with 10% fetal calf serum at […]. To separate non-adherent lymphocytes from adherent monocytes, culture dishes were washed with RPMI after overnight incubation. The adherent cells were re-fed with RPMI and cultured for 7 days to obtain supernatants. Supernatants were clarified by centrifugation at 90,000 g over 25% sucrose overnight. The supernatant was filtered through a 0.22 μm syringe filter and stored at −70° C.
Human fetal brain tissue from between 16 and 18 weeks' gestation was obtained from elective abortions for preparation of brain cell aggregates. These aggregates contain all the cells of the central nervous system including neurons, astrocytes, oligodendrocytes with accompanying myelin, and microglial cells. After 10 days in culture, and before experimentation, aggregates were tested for viability by trypan-blue exclusion. […]
Lactate dehydrogenase is released on cell lysis. […] The brain aggregate supernatant was reacted with yellow tetrazolium salt and absorbance was read at 490 nm. […]

[2] = tested on: human brain tumor cell lines; conditions: cited from earlier work
AIDS related lymphoma = assay: Clinical response to DEHOP in chemotherapy resistant AIDS related lymphoma patients; format: in vivo, human; conditions: for tumor relapse: after two cycles of DEHOP, no third cycle
Method: as §1

CCNCCCCNCCCCNCCCCNCC [DEHOP, 1,14-bis(ethylamino)-5,10-diazatetradecane]
PCNA/CD69 expression of CD14 cells (CD14^+ cells; after administration of drug): generally decreased
expression of all macrophage activation parameters (CD14^+ cells; day 35 after initiation of study): low to background level
PCNA^+/CD14 cell survival ([1]; FIG. 6, averages of several (N) experiments): decrease
% Inhibition of CD14^+/PCNA antigen expression ([1]; HIV dementia patient 1, DEHOP 2 um): 79%
% Inhibition of CD14^+/PCNA antigen expression ([1]; HIV dementia patient 1, DEHOP 10 um): 95%
% Inhibition of CD14^+/PCNA antigen expression ([1]; HIV dementia patient 1, DEHOP 50 um): 84%
% Inhibition of CD14^+/PCNA antigen expression ([1]; HIV dementia patient 2, DEHOP 0.4 um): 94%
% Inhibition of CD14^+/PCNA antigen expression ([1]; HIV dementia patient 2, DEHOP 2 um): 94%
% Inhibition of CD14^+/PCNA antigen expression ([1]; HIV dementia patient 2, DEHOP 10 um): 97%
% Inhibition of CD14^+/PCNA antigen expression ([1]; HIV dementia patient 3, DEHOP 0.4 um): 66%
% Inhibition of CD14^+/PCNA antigen expression ([1]; HIV dementia patient 3, DEHOP 2 um): 62%
% Inhibition of CD14^+/PCNA antigen expression ([1]; HIV dementia patient 3, DEHOP 10 um): 58%
% Inhibition of CD14^+/PCNA antigen expression ([1]; HIV dementia patient 4, DEHOP 0.08 um): 19%
% Inhibition of CD14^+/PCNA antigen expression ([1]; HIV dementia patient 4, DEHOP 0.4 um): 25%
% Inhibition of CD14^+/PCNA antigen expression ([1]; HIV dementia patient 4, DEHOP 2 um): 75%
CD14^+/PCNA^+ ([1]; 0.4 (um)): 25 #cells/10,000 PBMC
CD14^+/PCNA^− ([1]; 0.4 (um)): 222 #cells/10,000 PBMC
total CD14 ([1]; 0.4 (um)): 247 #cells/10,000 PBMC
CD14^+/PCNA^+ ([1]; 2 (um)): 28 #cells/10,000 PBMC
CD14^+/PCNA^− ([1]; 2 (um)): 182 #cells/10,000 PBMC
total CD14 ([1]; 2 (um)): 210 #cells/10,000 PBMC
CD14^+/PCNA^+ ([1]; 10 um): 31 #cells/10,000 PBMC
CD14^+/PCNA^− ([1]; 10 um): 89 #cells/10,000 PBMC
total CD14 ([1]; 10 um): 120 #cells/10,000 PBMC
percentage of proliferating macrophages (as detected by PCNA) ([1]; blood of four patients with AIDS dementia, FIG. 1A): significantly reduced the percentage of proliferating macrophages
inhibitory effect compared with cyclosphosphamide ([1]; blood of patient five, Table 1): superior in inhibition
% Inhibition of CD14^+/PCNA antigen expression, mean ([1]; DEHOP 0.08 um): 19%
% Inhibition of CD14^+/PCNA antigen expression, mean ([1]; DEHOP 0.4 um): 62%
% Inhibition of CD14^+/PCNA antigen expression, mean ([1]; DEHOP 2 um): 78%
% Inhibition of CD14^+/PCNA antigen expression, mean ([1]; DEHOP 10 um): 83%
% Inhibition of CD14^+/PCNA antigen expression, mean ([1]; DEHOP 50 um): 84%
inhibition and/or killing of blood PCNA^+/CD14^+ cells ([1]; summary of the data shown): potent inhibition and/or killing
cell killing by macrophage supernatants (brain cell aggregates; non-dementia disease control (AIDS lymphoma), with or without DEHOP treatment): did not show significant cell killing
cell killing by macrophage supernatants (brain cell aggregates; peripheral blood of an AIDS dementia patient, preparations treated with DEHOP): virtually disappeared
growth, survival, and cell cycle progression [2]: directly affects growth, survival, and cell cycle progression
Response to Therapy: objective measured tumor response after first week of Rx (AIDS related lymphoma; patient four, DEHOP sq for 5 days, 25 or 50 mg/m^2): >50% objective measured tumor
tumor relapse (AIDS related lymphoma; patient four): 47 days
Response to Therapy (AIDS related lymphoma; patient one, DEHOP sq for 5 days, 25 or 50 mg/m^2): None
Response to Therapy (AIDS related lymphoma; patient three, DEHOP sq for 5 days, 25 or 50 mg/m^2): Clinical Response
tumor relapse (AIDS related lymphoma; patient three): 54 days
Response to Therapy (AIDS related lymphoma; patient two, DEHOP sq for 5 days, 25 or 50 mg/m^2): None
clinical response (AIDS related lymphoma; patients, day 35 after initiation of study): objective and subjective responses
